Measurements reported in patent US11091472B2, “PI-kinase inhibitors with anti-infective activity” (The Board of Trustees of the Leland Stanford Junior …, priority 2016, dated 2021).
“Also recorded” adds a separate entry of the source.

What was measured:
[1] = target: PI3K p110a (Homo sapiens (Human), UniProt P42336); experiment: PI3K p110a kinase assay; format: biochemical; conditions: kinase activity
[2] = target: PI4KIIIB (Bos taurus (Bovine), UniProt O02810); experiment: PI4KIIIβ kinase assay (immunoprecipitated HA-tagged enzyme, [γ-32P]-ATP); format: biochemical; conditions: kinase activity
PI4KIIIB, sequence (O02810 whole entry): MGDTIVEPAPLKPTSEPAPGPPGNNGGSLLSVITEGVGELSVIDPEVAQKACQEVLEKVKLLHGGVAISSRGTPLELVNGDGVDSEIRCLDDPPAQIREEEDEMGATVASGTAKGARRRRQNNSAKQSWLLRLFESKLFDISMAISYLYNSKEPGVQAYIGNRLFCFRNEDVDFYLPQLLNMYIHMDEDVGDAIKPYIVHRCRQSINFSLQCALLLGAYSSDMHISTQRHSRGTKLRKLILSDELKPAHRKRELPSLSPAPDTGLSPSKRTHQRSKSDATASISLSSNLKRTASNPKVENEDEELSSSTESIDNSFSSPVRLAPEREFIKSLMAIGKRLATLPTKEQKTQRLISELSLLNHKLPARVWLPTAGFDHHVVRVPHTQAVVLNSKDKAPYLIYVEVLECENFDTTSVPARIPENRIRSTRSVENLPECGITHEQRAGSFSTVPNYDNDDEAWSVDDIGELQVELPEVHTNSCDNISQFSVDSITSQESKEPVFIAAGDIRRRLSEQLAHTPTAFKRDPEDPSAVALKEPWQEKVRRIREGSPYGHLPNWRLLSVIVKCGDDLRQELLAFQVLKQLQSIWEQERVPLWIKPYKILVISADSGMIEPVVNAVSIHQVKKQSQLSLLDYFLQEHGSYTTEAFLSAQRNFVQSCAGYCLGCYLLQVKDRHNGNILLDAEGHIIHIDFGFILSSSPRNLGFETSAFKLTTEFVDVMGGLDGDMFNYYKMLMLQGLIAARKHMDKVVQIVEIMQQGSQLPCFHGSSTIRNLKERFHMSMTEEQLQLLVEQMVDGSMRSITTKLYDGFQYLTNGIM

[3] = target: PI3K p110g (Homo sapiens (Human), UniProt P48736); experiment: PI3K p110g kinase assay; format: biochemical; conditions: kinase activity
PI3K p110g, sequence (P48736 whole entry): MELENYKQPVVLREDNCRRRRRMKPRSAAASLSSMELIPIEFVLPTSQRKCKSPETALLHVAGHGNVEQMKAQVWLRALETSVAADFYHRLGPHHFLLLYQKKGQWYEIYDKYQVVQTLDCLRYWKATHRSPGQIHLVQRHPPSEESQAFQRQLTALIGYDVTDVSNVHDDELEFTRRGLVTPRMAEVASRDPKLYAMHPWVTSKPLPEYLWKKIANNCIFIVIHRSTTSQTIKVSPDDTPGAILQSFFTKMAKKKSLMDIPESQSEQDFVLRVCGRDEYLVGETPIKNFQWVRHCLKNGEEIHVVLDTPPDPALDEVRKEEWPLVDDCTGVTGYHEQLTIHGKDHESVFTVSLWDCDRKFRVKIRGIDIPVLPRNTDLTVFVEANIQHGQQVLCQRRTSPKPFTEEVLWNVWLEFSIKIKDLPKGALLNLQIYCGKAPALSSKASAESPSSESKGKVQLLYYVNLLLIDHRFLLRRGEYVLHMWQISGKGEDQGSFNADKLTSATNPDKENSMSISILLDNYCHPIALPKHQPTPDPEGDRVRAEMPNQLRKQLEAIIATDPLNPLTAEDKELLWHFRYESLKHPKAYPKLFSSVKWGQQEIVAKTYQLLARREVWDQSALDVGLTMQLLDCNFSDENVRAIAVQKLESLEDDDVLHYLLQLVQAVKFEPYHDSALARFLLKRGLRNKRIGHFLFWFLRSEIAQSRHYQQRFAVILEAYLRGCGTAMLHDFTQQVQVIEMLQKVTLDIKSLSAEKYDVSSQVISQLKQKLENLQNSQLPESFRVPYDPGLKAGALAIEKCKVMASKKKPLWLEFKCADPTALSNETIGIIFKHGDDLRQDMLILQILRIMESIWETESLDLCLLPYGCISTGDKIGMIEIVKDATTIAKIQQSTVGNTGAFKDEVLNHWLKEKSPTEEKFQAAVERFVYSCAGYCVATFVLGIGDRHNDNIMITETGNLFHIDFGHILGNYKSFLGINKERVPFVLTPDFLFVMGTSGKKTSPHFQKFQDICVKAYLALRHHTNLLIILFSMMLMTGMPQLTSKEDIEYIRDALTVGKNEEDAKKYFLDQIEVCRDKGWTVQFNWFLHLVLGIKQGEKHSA

[4] = target: PI3KC2G (Homo sapiens (Human), UniProt O75747); experiment: PI3KC2G kinase assay; format: biochemical; conditions: kinase activity
PI3KC2G, sequence (O75747 whole entry): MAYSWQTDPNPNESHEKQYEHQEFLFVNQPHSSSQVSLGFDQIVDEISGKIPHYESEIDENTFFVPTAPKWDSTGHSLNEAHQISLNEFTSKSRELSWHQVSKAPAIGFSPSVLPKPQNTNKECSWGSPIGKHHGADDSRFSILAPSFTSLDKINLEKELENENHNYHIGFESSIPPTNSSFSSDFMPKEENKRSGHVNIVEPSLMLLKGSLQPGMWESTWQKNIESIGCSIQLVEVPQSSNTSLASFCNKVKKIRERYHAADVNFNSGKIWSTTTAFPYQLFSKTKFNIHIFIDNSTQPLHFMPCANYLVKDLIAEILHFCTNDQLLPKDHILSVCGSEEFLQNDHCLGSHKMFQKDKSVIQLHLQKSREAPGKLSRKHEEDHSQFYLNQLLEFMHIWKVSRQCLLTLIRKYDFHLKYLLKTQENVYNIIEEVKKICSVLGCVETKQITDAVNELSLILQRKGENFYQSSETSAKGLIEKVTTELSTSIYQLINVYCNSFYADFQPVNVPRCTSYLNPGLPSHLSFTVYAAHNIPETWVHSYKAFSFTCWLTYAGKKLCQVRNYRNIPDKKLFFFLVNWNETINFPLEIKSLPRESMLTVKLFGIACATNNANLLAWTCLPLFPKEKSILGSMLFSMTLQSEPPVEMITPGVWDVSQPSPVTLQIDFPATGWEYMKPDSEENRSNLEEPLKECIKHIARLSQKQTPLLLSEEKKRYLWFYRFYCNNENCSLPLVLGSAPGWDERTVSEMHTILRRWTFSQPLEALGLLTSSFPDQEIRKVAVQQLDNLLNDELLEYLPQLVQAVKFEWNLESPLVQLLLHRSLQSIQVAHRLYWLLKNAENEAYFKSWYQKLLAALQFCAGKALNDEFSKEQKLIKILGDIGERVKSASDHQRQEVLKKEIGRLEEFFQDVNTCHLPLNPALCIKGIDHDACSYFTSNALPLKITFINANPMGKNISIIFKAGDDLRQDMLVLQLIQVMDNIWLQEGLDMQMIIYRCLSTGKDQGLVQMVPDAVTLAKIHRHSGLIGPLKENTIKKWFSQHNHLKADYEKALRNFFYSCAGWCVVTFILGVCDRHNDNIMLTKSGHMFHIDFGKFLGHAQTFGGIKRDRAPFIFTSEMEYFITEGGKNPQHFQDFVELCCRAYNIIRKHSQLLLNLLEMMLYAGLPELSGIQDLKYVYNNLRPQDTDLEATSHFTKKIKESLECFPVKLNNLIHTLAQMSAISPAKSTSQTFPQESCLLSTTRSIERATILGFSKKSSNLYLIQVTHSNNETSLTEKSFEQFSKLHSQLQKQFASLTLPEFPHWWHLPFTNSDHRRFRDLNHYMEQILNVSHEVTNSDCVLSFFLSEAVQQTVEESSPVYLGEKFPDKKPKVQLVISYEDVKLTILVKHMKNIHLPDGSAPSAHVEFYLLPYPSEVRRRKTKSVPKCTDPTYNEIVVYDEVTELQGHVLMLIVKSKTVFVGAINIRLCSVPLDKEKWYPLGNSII
Experimental: PI-kinase assay: Compounds are tested in C.1.1. PI kinase assays as described by Shokat et al., “A membrane capture assay for lipid kinase activity.” Nat. Protoc.
(§1) Selected compounds of Table 1 and 2 were prepared and tested for inhibition activity in a variety of kinase assays.

[5] = target: PI4KIIIA (Homo sapiens (Human), UniProt P42356); experiment: PI4KIIIα kinase assay (immunoprecipitated HA-tagged enzyme, [γ-32P]-ATP); format: biochemical; conditions: kinase activity
[6] = Cell toxicity (CC50); format: cell-based; conditions: human, HuH-7 cells
[7] = test system: HCV2a; experiment: microbe, parasite or virus in culture; format: cell-based, HCV; conditions: Hepatitis C virus, Huh7.5, read-out: HCV2a EC50
[8] = test system: Influenza A virus H1N1; experiment: Influenza A virus H1N1 cell based antiviral assay
[9] = test system: Poliovirus (WM-3); experiment: microbe, parasite or virus in culture; format: cell-based; conditions: Enterovirus C, read-out: Poliovirus (WM-3) EC50 (uM)
[10] = test system: NV (GT1); experiment: NV (GT1) cell based antiviral assay
Experimental: Compounds of interest were tested in a variety of cell based assays for antiviral activity.

[11] = test system: HRV; experiment: Rhinovirus antiviral assay; format: cell-based; conditions: Human rhinovirus sp.
[12] = test system: Adenovirus 5 (Adenoid 75); experiment: Adenovirus 5 cell based antiviral assay; conditions: Human mastadenovirus C
[13] = test system: Enterovirus 68; experiment: Enterovirus 68 cell based antiviral assay; conditions: Enterovirus D
[14] = test system: MERS coronavirus; experiment: microbe, parasite or virus in culture; format: cell-based; conditions: Middle East respiratory syndrome-related coronavirus, read-out: MERS coronavirus EC50 (uM)
[15] = test system: Dengue virus 2; experiment: Dengue virus 2 cell based antiviral assay
[16] = test system: EV71; experiment: EV71 antiviral assay; format: cell-based; conditions: Enterovirus A
[17] = test system: Enterovirus 71; experiment: Enterovirus 71 cell based antiviral assay; conditions: Enterovirus A
[18] = test system: Coxsackie virus B3; experiment: Coxsackie virus B3 cell based antiviral assay; conditions: Enterovirus B
[19] = test system: Ebola; experiment: microbe, parasite or virus in culture; format: cell-based; conditions: Zaire ebolavirus, read-out: Ebola EC50
[20] = target: PI3KC2B (Homo sapiens (Human), UniProt O00750); experiment: PI3KC2B kinase assay; format: biochemical; conditions: kinase activity
PI3KC2B, sequence (O00750 whole entry): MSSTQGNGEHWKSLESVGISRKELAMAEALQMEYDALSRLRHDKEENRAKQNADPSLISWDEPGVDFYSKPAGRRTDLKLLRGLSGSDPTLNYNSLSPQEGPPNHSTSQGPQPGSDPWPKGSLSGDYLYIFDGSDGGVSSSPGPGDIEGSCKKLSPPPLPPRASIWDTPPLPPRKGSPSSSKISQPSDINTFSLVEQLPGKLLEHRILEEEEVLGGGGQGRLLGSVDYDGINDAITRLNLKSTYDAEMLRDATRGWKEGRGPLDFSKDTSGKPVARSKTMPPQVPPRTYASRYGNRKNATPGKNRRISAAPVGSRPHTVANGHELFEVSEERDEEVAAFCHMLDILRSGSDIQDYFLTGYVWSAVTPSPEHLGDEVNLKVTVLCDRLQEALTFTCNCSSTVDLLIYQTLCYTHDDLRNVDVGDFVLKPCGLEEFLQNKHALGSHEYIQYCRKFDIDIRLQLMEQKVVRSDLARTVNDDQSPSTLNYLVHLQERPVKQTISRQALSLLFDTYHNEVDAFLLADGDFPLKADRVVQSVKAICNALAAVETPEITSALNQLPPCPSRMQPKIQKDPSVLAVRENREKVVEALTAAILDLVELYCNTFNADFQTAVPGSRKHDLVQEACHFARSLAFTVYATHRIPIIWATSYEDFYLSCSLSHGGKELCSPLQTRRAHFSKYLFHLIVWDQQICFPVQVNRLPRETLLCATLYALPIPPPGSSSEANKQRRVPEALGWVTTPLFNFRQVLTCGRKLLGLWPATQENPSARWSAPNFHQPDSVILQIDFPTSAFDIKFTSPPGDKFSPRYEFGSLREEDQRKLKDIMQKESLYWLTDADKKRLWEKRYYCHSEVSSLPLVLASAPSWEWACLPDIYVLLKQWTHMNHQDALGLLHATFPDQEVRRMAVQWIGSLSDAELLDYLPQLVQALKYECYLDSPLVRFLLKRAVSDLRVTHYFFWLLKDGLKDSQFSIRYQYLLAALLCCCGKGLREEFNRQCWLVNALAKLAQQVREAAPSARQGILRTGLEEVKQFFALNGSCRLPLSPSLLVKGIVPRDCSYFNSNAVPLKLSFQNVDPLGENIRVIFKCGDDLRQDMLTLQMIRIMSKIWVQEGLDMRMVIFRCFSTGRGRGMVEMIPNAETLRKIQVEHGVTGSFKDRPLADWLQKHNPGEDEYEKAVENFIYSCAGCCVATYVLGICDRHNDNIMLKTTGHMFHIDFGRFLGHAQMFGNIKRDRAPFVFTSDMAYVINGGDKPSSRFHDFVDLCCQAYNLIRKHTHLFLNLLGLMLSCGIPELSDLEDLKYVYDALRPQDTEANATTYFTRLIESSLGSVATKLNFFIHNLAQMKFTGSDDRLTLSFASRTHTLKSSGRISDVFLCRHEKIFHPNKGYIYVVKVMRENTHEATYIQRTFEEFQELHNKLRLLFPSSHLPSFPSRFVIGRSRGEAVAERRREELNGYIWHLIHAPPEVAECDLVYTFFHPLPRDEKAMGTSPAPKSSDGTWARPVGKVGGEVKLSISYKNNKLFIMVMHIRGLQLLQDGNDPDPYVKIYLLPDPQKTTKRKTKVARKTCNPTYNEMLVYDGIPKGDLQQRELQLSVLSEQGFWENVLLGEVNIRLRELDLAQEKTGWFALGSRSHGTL
Experimental: PI-kinase assay: Compounds are tested in C.1.1. PI kinase assays as described by Shokat et al., “A membrane capture assay for lipid kinase activity.” Nat. Protoc. 2007; 2(10):2459-66.
as §1

[21] = test system: PI(4,5)P2; experiment: Immunofluorescence of intracellular PIP2 pools in cells; format: cell-based; conditions: Huh7.5 cells, uninfected or HCV-infected, 250 nm, 500 nM or 1 uM
Experimental: (§2) To further confirm its mechanism of action the effect of (1) on PI-4 levels was determined in cells using immunofluorescence to monitor the intracellular localized pools of PI-4. The effect of (1) on intracellular pools of PIP2 was tested, which were predicted to be similarly sensitive to inhibition using (1). […] Uninfected Huh7.5 cells or HCV-infected Huh7.5 cells were used. Cells were treated with […], 500 nM or 1 uM concentrations of (1) or vehicle control, and analyzed by immunofluorescence with antibodies to PI(4)P or PI(4,5)P2 along with an antibody to calnexin to control for ER morphology.

[22] = test system: ER-localized calnexin; experiment: Calnexin co-staining as control for ER morphology; format: cell-based; conditions: co-stained with antibody to calnexin
Experimental: as §2

[23] = test system: HCV replicon; conditions: HCV replicon system
[24] = test system: PI(4)P; experiment: Immunofluorescence of intracellular PI-4 pools in cells; format: cell-based; conditions: Huh7.5 cells, uninfected or HCV-infected, 250 nm, 500 nM or 1 uM
Experimental: as §2

[25] = test system: HCV; experiment: HCV standard replication assay; conditions: Hepatitis C virus, read-out: EC50 against HCV
[26] = in vitro; format: cell-based

Row | SMILES | IC50 [1] | IC50 [2] | IC50 [3] | IC50 [4] | IC50 [5] | CC50 [6] | EC50 [7] | also measured
1 | COc1ccc(-c2sc(NC(=O)CC3CCOCC3)nc2C)cc1S(=O)(=O)Nc1ccc(F)cc1 [Compound S-170] | > 10 µM | < 0.1 µM | > 10 µM | > 10 µM | < 0.1 µM |  |  | 
2 | COc1ccc(-c2sc(NC3CCCCCC3)nc2C)cc1S(=O)(=O)Nc1c(C)cccc1C [Compound S-98] | > 10 µM | < 0.1 µM | > 10 µM |  | > 10 µM | > 10 µM | 1 to 10 µM | EC50 [8]: > 10 µM; EC50 [9]: 0.001 to 0.1 µM; EC50 [10]: 1 to 10 µM; EC50 [11]: < 0.001 µM; EC50 [12]: > 10 µM; EC50 [13]: < 0.001 µM; EC50 [14]: > 10 µM; EC50 [15]: > 10 µM; EC50 [16]: < 0.001 µM; EC50 [17]: 0.001 to 0.1 µM; EC50 [18]: 0.001 to 0.1 µM
3 | COc1ncc(-c2sc(NC(=O)CC3CCOCC3)nc2C)cc1S(=O)(=O)N[C@H]1CC[C@@H](O)CC1 [Compound S-262] | > 10 µM | < 0.1 µM |  | 0.1 to 1 µM | < 0.1 µM |  |  | 
4 | COc1ncc(-c2sc(NC(=O)CC3CCOCC3)nc2C)cc1S(=O)(=O)Nc1cccc(C(=O)O)c1 [Compound S-265] | > 10 µM | < 0.1 µM | > 10 µM | 1 to 10 µM | < 0.1 µM |  |  | 
5 | COc1ccc(-c2sc(NCC3CCCCC3)nc2C)cc1S(=O)(=O)Nc1cccc(C(C)(C)C)c1 [Compound S-32] |  |  |  |  |  | > 10 µM | 1 to 10 µM | EC50 [11]: < 0.001 µM; EC50 [19]: 1 to 10 µM
6 | COc1ccc(-c2sc(NC(=O)CC3CCCC3)nc2C)cc1S(=O)(=O)Nc1ccc(O)cc1 [Compound S-1] | > 10 µM | < 0.1 µM | > 10 µM | < 0.1 µM |  | > 10 µM | 0.001 to 0.1 µM | IC50 [20]: > 10 µM
7 | COc1ccc(-c2sc(NC(=O)[C@@H](C)C3CCCCC3)nc2C)cc1S(=O)(=O)Nc1ccc(O)cc1 [Compound S-138] |  |  |  |  |  | > 10 µM |  | 
8 | COc1ccc(-c2sc(NC(C)(C)C)nc2C)cc1S(=O)(=O)N[C@H]1CC[C@H](O)CC1 [Compound S-216] |  | < 0.1 µM | > 10 µM | 1 to 10 µM |  |  |  | IC50 [20]: > 10 µM
9 | COc1ccc(-c2sc(NC(=O)CCC3CCCC3)nc2C)cc1S(=O)(=O)NC1CCNCC1 [Compound S-160] |  | < 0.1 µM | > 10 µM | 0.1 to 1 µM |  |  |  | IC50 [20]: > 10 µM
10 | COc1ccc(-c2sc(NC(C)C)nc2C)cc1S(=O)(=O)N[C@H]1CC[C@H](O)CC1 [Compound S-215] |  | < 0.1 µM | > 10 µM | 1 to 10 µM | 1 to 10 µM |  |  | IC50 [20]: > 10 µM
11 | COc1ncc(-c2sc(NC(=O)CC3CCOCC3)nc2C)cc1S(=O)(=O)Nc1cccc(O)c1 [Compound S-259] | 1 to 10 µM | < 0.1 µM |  | 1 to 10 µM | < 0.1 µM |  |  | 
12 | COc1ccc(-c2sc(NCC3CCCCC3)nc2C)cc1S(=O)(=O)NC1CCCNC1 (centres unmarked) [Compound S-115] |  |  |  |  |  | > 10 µM | 0.1 to 1 µM | 
13 | COc1ncc(-c2sc(NC(=O)CC3CCOCC3)nc2C)cc1S(=O)(=O)NC1CCCC(O)C1 (centres unmarked) [Compound S-263] |  |  |  |  |  | > 10 µM | 0.001 to 0.1 µM | 
14 | COc1ccc(-c2sc(NC(C)C3CCOCC3)nc2C)cc1S(=O)(=O)NC1CCC(O)CC1 (centres unmarked) [Compound S-328] |  |  |  |  |  |  |  | EC50 [8]: > 10 µM; EC50 [9]: 0.001 to 0.1 µM; EC50 ([11]; Table 5): 0.001 to 0.1 µM; EC50 [12]: > 10 µM; EC50 [13]: 0.001 to 0.1 µM; EC50 [14]: > 10 µM; EC50 [15]: > 10 µM; EC50 ([16]; Table 5): 0.001 to 0.1 µM; EC50 [17]: 0.001 to 0.1 µM; EC50 [18]: 0.001 to 0.1 µM
15 | COc1ncc(-c2sc(NC(=O)CC3CCOCC3)nc2C)cc1S(=O)(=O)Nc1ccc(F)cc1F [Compound S-260] | > 10 µM | < 0.1 µM | > 10 µM | > 10 µM | < 0.1 µM | > 10 µM | 0.1 to 1 µM | 
16 | COc1ccc(-c2sc(NC(=O)C3CCCC3)nc2C)cc1S(=O)(=O)Nc1ccc(O)cc1 [Compound 1] |  |  |  |  |  |  |  | effect on intracellular pools of PIP2 (PI(4,5)P2) [21]: dose-dependent decrease; also recorded: decreases; effects on the ER [22]: absence of any detectable effects on the ER; selection of resistance [23]: resistance was not able to be selected; effect on PI-4 (PI(4)P) levels in cells [24]: dose-dependent decrease; also recorded: decreases; EC50 [25]: 0.365 µM; CC50 [26]: > 10 µM
17 | COc1ccc(-c2sc(NC(=O)CC3CCOCC3)nc2C)cc1S(=O)(=O)Nc1cc(C)cc(O)c1 [Compound S-169] | > 10 µM | < 0.1 µM | > 10 µM | > 10 µM | < 0.1 µM |  |  | 
18 | COc1ccc(NS(=O)(=O)c2cc(-c3sc(NC4CCCCC4)nc3C)ccc2OC)c(C)c1 [Compound S-66] |  |  |  |  |  | > 10 µM | 1 to 10 µM | EC50 [11]: < 0.001 µM
19 | COc1ccc(-c2sc(N[C@H](C)C3CCCCC3)nc2C)cc1S(=O)(=O)NC1CCNCC1 [Compound S-147] | > 10 µM | < 0.1 µM | > 10 µM |  | 0.1 to 1 µM |  |  | 
20 | COc1ccc(-c2sc(NC(=O)CC3CCOCC3)nc2C)cc1S(=O)(=O)Nc1ccc(O)cc1C [Compound S-231] |  | < 0.1 µM | > 10 µM | 0.1 to 1 µM |  |  |  | IC50 [20]: > 10 µM
21 | COc1ccc(-c2sc(NC(=O)CC3CCOCC3)nc2C)cc1S(=O)(=O)Nc1ccc(O)cc1 [Compound S-227] | > 10 µM | < 0.1 µM | > 10 µM | 1 to 10 µM |  | > 10 µM | 0.001 to 0.1 µM | EC50 [8]: > 10 µM; EC50 [9]: 0.001 to 0.1 µM; EC50 [10]: 0.1 to 1 µM; EC50 [12]: > 10 µM; EC50 [13]: < 0.001 µM; EC50 [14]: > 10 µM; EC50 [15]: > 10 µM; IC50 [20]: > 10 µM; EC50 [17]: 0.001 to 0.1 µM; EC50 [18]: 0.001 to 0.1 µM; EC50 [19]: 0.1 to 1 µM
22 | COc1ncc(-c2sc(NC(=O)CC3CCOCC3)nc2C)cc1S(=O)(=O)Nc1ccc(O)cc1 [Compound S-261] | 0.1 to 1 µM | < 0.1 µM |  | 0.1 to 1 µM | < 0.1 µM | > 10 µM | 0.001 to 0.1 µM | 
23 | COc1ccc(-c2sc(N[C@H](C)CC3CCCCC3)nc2C)cc1S(=O)(=O)NC1CCNCC1 [Compound S-145] | > 10 µM | < 0.1 µM | > 10 µM |  | 0.1 to 1 µM |  |  | 
24 | COc1ccc(-c2sc(N[C@H](C)C3CCCCC3)nc2C)cc1S(=O)(=O)N[C@H]1CC[C@H](O)CC1 [Compound S-193] |  | < 0.1 µM |  | > 10 µM |  |  |  | IC50 [20]: > 10 µM
25 | COc1ccc(-c2sc(NC(C)C3CCOCC3)nc2C)cc1S(=O)(=O)Nc1ccccc1Cl (centres unmarked) [Compound S-316] |  |  |  |  |  |  |  | EC50 [8]: 1 to 10 µM; EC50 [9]: 0.1 to 1 µM; EC50 ([11]; Table 5): 0.001 to 0.1 µM; EC50 [12]: > 10 µM; EC50 [13]: 0.001 to 0.1 µM; EC50 [14]: 1 to 10 µM; EC50 [15]: 1 to 10 µM; EC50 ([16]; Table 5): 0.001 to 0.1 µM; EC50 [17]: 0.001 to 0.1 µM; EC50 [18]: 0.001 to 0.1 µM
